Experimental data published in article PMC11372839, “Unraveling the Potential of Vitamin B3-Derived Salts with a Salicylate Anion as Dermal Active Agents for Acne Treatment” (Molecular Pharmaceutics, 2024).
Values after ≈ are worked out from the molar mass of the structure shown. Like-named read-outs stand apart in the source and are kept apart here.

Key:
Cutibacterium acnes = assay: MIC and MBC determination, microdilution method; format: cell-based; details: Cutibacterium acnes; for MIC: 48 h, read-out: MIC, C. acnes; for MBC: read-out: MBC, C. acnes
Experimental: (§1) The antimicrobial activities of the compounds were tested against clinical strains of an aerobic Gram-negative bacterium—Pseudomonas aeruginosa (P. aeruginosa), facultative anaerobic Gram-positive bacteria—Staphylococcus aureus (S. aureus) and Staphylococcus epidermidis (S. epidermidis), anaerobic Gram-positive bacterium—Cutibacterium acnes (C. acnes), and yeast-like fungus—Candida albicans (C. albicans).
(§2) Aerobic and facultative anaerobic bacteria cultures were grown in Brain Heart Infusion broth (BHI, bioMerieux, France) at 35 °C ± 1 °C for 18 h, C. acnes cultures were grown in thioglycolate broth with resazurin (TGB, bioMerieux, France) at 35 ± 1 °C for 48 h, and yeast cultures were grown in Sabouraud dextrose broth (SDB, Merck, Germany) at 35 ± 1 °C for 24 h. After incubation, each culture was diluted in a suitable liquid medium: P. aeruginosa, S. aureus, and S. epidermidis—Mueller–Hinton broth (MHB; Oxoid, UK); C. acnes—TGB; and C. albicans—SDB, to obtain a final suspension containing about 10^6 CFU/mL.
(§3) The microdilution method was employed to determine the compounds’ MIC (Minimal Inhibitory Concentration) and MBC/MFC (Minimal Bactericidal Concentration/Minimal Fungicidal Concentration) against the tested bacterial and fungal strains.
(§4) The compounds were serially diluted (2-fold) in the respective media (P. aeruginosa, S. aureus, and S. epidermidis—MHB, C. acnes—TGB, and C. albicans—SDB in 96-well plates), and the microbial suspensions were added. The compounds were tested in the final concentration range of 4 096 to 0.125 μg/mL, and the final microbial inoculum was approximately 5 ×10^5 CFU/mL. The tests were incubated at 35 °C ± 1 °C for 18 h (P. aeruginosa, S. aureus, and S. epidermidis) or 24 h (C. albicans) or 48 h (C. acnes). C. acnes was incubated in an anaerobic atmosphere using a GENbag anaer (bioMerieux, France). Media (without the strains) added to the different concentrations of tested compounds and media inoculated with microbial suspension were used as a negative control and growth control, respectively.
(§5) The MIC was defined as the lowest concentration at which visible growth was inhibited. MBC and MFC concentrations were determined as an extension of the MIC test. […] The plates were incubated at 35 ± 1 °C for 18–72 h. C. acnes was incubated in an anaerobic atmosphere. The MBC/MFC was defined as the lowest concentration at which no growth was observed. All tests were performed in duplicate.

Pseudomonas aeruginosa = assay: MIC and MBC determination, microdilution method; format: cell-based; details: for MIC: 18 h, read-out: MIC, P. aeruginosa
Experimental: as §1, §2, §3, §4, §5

Artemia franciscana = assay: Ecotoxicity toward aquatic life, Artoxkit M immobilization test; format: in vivo; details: for EC50: Artemia franciscana; for Class: acute toxicity rating scale by Fish and Wildlife Service
Experimental: To determine the EC50 parameter for compounds, tests were carried out on marine crustaceans—Artemia franciscana (A. franciscana). The methodology proposed in the Artoxkit M test (MicroBioTests Inc., Gent, Belgium) was developed according to the ASTM E1440-91 standard.
The hatching process was started first. For this purpose, 50 mg of cysts was transferred to the Petri dishes attached to the Artoxkit M set, which were then immersed in 10 mL of artificial seawater with a salinity of 35‰ (a medium for the development of the tested organisms, as well as a solvent for preparing solutions of the tested compounds) and placed at a temperature of 25 °C, with access to light (6000–10,000 lux) for 30 h. Then, 2 h before placing them on the Artoxkit M plates, 20 mg of spirulina was added to cultured artemias. In addition, 1 h before the analysis, the used seawater was oxygenated by passing a stream of air through the solution. To each of the four cells in a given row of a plate from the Artoxkit M kit, 1 mL of solution at the specified concentrations (or the appropriate medium in the case of a control) were introduced. In the first column of cells (a control sample and five selected concentrations), no less than 30 artemias were placed from previously prepared Petri dishes. Then, from the first cell in the first column, artemias were collected at the selected concentration and added to the next three cells in the selected row, 10 organisms per cell. After the organisms were introduced into the appropriate cells, the plates were covered with Parafilm and then closed with a plastic cap. The prepared kit was incubated at 25 °C and protected from light. Number of motionless organisms were counted after 24 and 48 h. Immobilization was then calculated (eq 1) in relation to the number of organisms at the start of the test: [drawing 1] 1
Next, the dependence between the effect and concentration of the tested compounds was plotted, and on this basis, an EC50 value was determined.

Candida albicans = assay: MIC and MFC determination, microdilution method; format: cell-based; details: clinical strain, tested 4 096 to 0.125 μg/mL, b = out of range
Experimental: as §1, §2, §3, §4, §5

[1] = immobilization, motionless organisms counted after 24 and 48 h, 25 °C, read-out: EC50
[2] = toxicity range of EC50, read-out: Range
[3] = clinical strain, anaerobic, tested 4 096 to 0.125 μg/mL, b = out of range

CCCCCCCCCC[n+]1cccc(C(N)=O)c1.O=C([O-])c1ccccc1O [compound 5]
MIC (Cutibacterium acnes): 1020 µg/mL
MBC (Cutibacterium acnes): 1020 µg/mL
MIC (Pseudomonas aeruginosa): 1020 µg/mL
EC50 (Artemia franciscana; [1]): 138 µg/mL
EC50 (Artemia franciscana; [2]): 100 to 1000 µg/mL
Class (Artemia franciscana): Practically Nontoxic (100-1000)

CCCCCCCC[n+]1cccc(C(N)=O)c1.O=C([O-])c1ccccc1O [compound 4]
EC50 (Artemia franciscana; [1]): 360 µg/mL
EC50 (Artemia franciscana; [2]): 100 to 1000 µg/mL
Class (Artemia franciscana): Practically Nontoxic (100-1000)

O=C(O)c1ccccc1O [SAL, salicylic acid, reference compound]
MIC (Cutibacterium acnes; [3]): 1020 µg/mL (≈ 7.41 mM)
MBC (Cutibacterium acnes; [3]): 4100 µg/mL (≈ 29.7 mM)
MIC (Pseudomonas aeruginosa; clinical strain, tested 4 096 to 0.125 μg/mL, b = out of range): 2050 µg/mL (≈ 14.8 mM)
MBC (Pseudomonas aeruginosa; clinical strain, tested 4 096 to 0.125 μg/mL, b = out of range, read-out: MBC, P. aeruginosa): 4100 µg/mL (≈ 29.7 mM)
MIC (Candida albicans; 24 h, read-out: MIC, C. albicans): 2050 µg/mL (≈ 14.8 mM)
MFC (Candida albicans; read-out: MFC, C. albicans): 2050 µg/mL (≈ 14.8 mM)
EC50 (Artemia franciscana; [1]): 300 µg/mL (≈ 2.17 mM)
EC50 (Artemia franciscana; [2]): 100 to 1000 µg/mL (≈ 0.724 to 7.24 mM)
Class (Artemia franciscana): Practically Nontoxic (100-1000)

CCCCCC[n+]1cccc(C(N)=O)c1.O=C([O-])c1ccccc1O [compound 3]
EC50 (Artemia franciscana; [1]): 692 µg/mL
EC50 (Artemia franciscana; [2]): 100 to 1000 µg/mL
Class (Artemia franciscana): Practically Nontoxic (100-1000)
